According to the supplement of paper PMC10307832:

Assays:
Experiment in all cases: relative viability (nuclei count vs DMSO), 5 days (fraction); higher = more cells survive
[1] = compound: COc1cc([C@@H]2c3cc4c(cc3[C@@H](O[C@@H]3O[C@@H]5CO[C@@H](C)O[C@H]5[C@H](O)[C@H]3O)[C@H]3COC(=O)[C@H]23)OCO4)cc(OC)c1O [Etoposide] + CS(=O)(=O)N1CCN(Cc2cc3nc(-c4cccc5[nH]ncc45)nc(N4CCOCC4)c3s2)CC1 [Pictilisib] (partner 1 µM)
How it was run: (§1)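 One day after seeding in 1536-well plates, lung cancer cell lines were dosed by pin tool. Dosing was either single-drug or a fixed anchor-drug dose plus five library-drug doses (not always all listed) in √10 steps. After 5 days, nuclei were stained in one fix-and-stain step and counted on 4× images, and relative viability is the nuclei count of treated wells over that of vehicle wells, given as the median of duplicate plates.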

[2] = compound: CC1=C(N=C(N=C1N)[C@H](CC(=O)N)NC[C@@H](C(=O)N)N)C(=O)N[C@@H]([C@H](C2=CN=CN2)OC3C(C(C(C(O3)CO)O)O)OC4C(C(C(C(O4)CO)O)OC(=O)N)O)C(=O)N[C@H](C)[C@H]([C@H](C)C(=O)N[C@@H]([C@@H](C)O)C(=O)NCCC5=NC(=CS5)C6=NC(=CS6)C(=O)NCCC[S+](C)C)O [Bleomycin] + Nc1nc2[nH]cc(CCc3ccc(C(=O)N[C@@H](CCC(=O)O)C(=O)O)cc3)c2c(=O)[nH]1 [Pemetrexed] (partner 0.2 µM); settings: main component drawn
How it was run: as §1

[3] = compound: CC1=C(N=C(N=C1N)[C@H](CC(=O)N)NC[C@@H](C(=O)N)N)C(=O)N[C@@H]([C@H](C2=CN=CN2)OC3C(C(C(C(O3)CO)O)O)OC4C(C(C(C(O4)CO)O)OC(=O)N)O)C(=O)N[C@H](C)[C@H]([C@H](C)C(=O)N[C@@H]([C@@H](C)O)C(=O)NCCC5=NC(=CS5)C6=NC(=CS6)C(=O)NCCC[S+](C)C)O [Bleomycin] + O=C(c1cc(Cc2n[nH]c(=O)c3ccccc23)ccc1F)N1CCN(C(=O)C2CC2)CC1 [Olaparib] (partner 8 µM); settings: main component drawn
How it was run: as §1

[4] = compound: COc1cc([C@@H]2c3cc4c(cc3[C@@H](O[C@@H]3O[C@@H]5CO[C@@H](C)O[C@H]5[C@H](O)[C@H]3O)[C@H]3COC(=O)[C@H]23)OCO4)cc(OC)c1O [Etoposide] + O=C(CCCCCCC(=O)Nc1ccccc1)NO [Vorinostat] (partner 1 µM)
How it was run: as §1

Cell Line	relative viability ([1]; first compound 0.01 µM)	relative viability ([1]; first compound 0.03162 µM)	relative viability ([1]; first compound 0.1 µM)	relative viability ([1]; first compound 0.3162 µM)	relative viability ([1]; first compound 1 µM)	relative viability ([2]; first compound 0.01 µM)	relative viability ([2]; first compound 0.03162 µM)	relative viability ([2]; first compound 0.1 µM)	relative viability ([2]; first compound 0.3162 µM)	relative viability ([2]; first compound 1 µM)	relative viability ([3]; first compound 0.01 µM)	relative viability ([3]; first compound 0.03162 µM)	relative viability ([3]; first compound 0.1 µM)	relative viability ([3]; first compound 0.3162 µM)	relative viability ([3]; first compound 1 µM)	relative viability ([4]; first compound 0.01 µM)	relative viability ([4]; first compound 0.03162 µM)	relative viability ([4]; first compound 0.1 µM)	relative viability ([4]; first compound 0.3162 µM)	relative viability ([4]; first compound 1 µM)
LCLC-103H	0.541	0.74	0.527	0.679	0.519	0.452	0.443	0.455	0.487	0.419	0.717	0.735	0.724	0.56	0.384	0.745	0.94	0.663	0.672	0.575
LK-2	0.573	0.572	0.407	0.476	0.26	0.243	0.252	0.204	0.146	0.133	0.369	0.451	0.279	0.163	0.165	0.317	0.374	0.165	0.158	0.149
LOU-NH91	0.55	0.566	0.474	0.473	0.399	0.423	0.38	0.368	0.315	0.271	0.604	0.521	0.432	0.342	0.28	0.88	0.982	0.831	0.659	0.387
LU99A	0.362	0.337	0.237	0.212	0.159	0.158	0.157	0.159	0.165	0.133	0.209	0.24	0.202	0.141	0.118	0.489	0.533	0.23	0.297	0.108
LXF-289	0.807	0.849	0.655	0.556	0.152	0.852	0.901	0.845	0.588	0.218	0.887	0.831	0.864	0.168	0.127	0.763	0.744	0.953	0.547	0.136
NCI-H23	0.433	0.487	0.275	0.334	0.185	0.419	0.342	0.285	0.187	0.171	0.205	0.153	0.171	0.107	0.107	0.633	0.604	0.316	0.262	0.145
NCI-H322M	0.504	0.566	0.397	0.493	0.384	0.635	0.606	0.723	0.573	0.575	0.612	0.823	0.675	0.545	0.447	0.863	0.962	0.73	0.728	0.611
NCI-H358	0.382	0.336	0.259	0.23	0.16	0.164	0.197	0.168	0.183	0.175	0.475	0.713	0.657	0.294	0.227	0.663	0.508	0.411	0.107	0.0977
NCI-H441	0.38	0.425	0.267	0.149	0.147	0.248	0.251	0.267	0.217	0.244	0.539	0.505	0.399	0.338	0.226	0.645	0.625	0.345	0.224	0.182
NCI-H460	0.393	0.434	0.151	0.076	0.0793	0.0698	0.0674	0.0717	0.0385	0.0443	0.212	0.159	0.12	0.0368	0.073	0.688	0.261	0.286	0.0502	0.0457
NCI-H520	0.306	0.307	0.27	0.277	0.223	0.731	0.757	0.653	0.443	0.446	0.339	0.322	0.325	0.251	0.268	0.777	0.776	0.878	0.591	0.461
NCI-H596	0.398	0.427		0.375	0.36	0.474	0.46	0.465	0.305	0.332	0.599	0.515	0.515	0.371	0.438	0.52	0.672	0.449	0.591	0.323
NCI-H647	0.418	0.394	0.257	0.208	0.0798	0.198	0.153	0.196	0.0716	0.0627	0.161	0.148	0.195	0.0429	0.0447	0.467	0.631	0.657	0.181	0.103
NCI-H650	0.865	0.843	0.415	0.362	0.221	0.708	0.951	0.78	0.479	0.34	0.333	0.463	0.336	0.264	0.175	0.438	0.454	0.241	0.266	0.181
NCI-H661	0.543	0.453	0.309	0.32	0.26	0.886	0.821	0.688	0.412	0.366	0.654	0.59	0.513	0.322	0.363	0.759	0.841	0.706	0.476	0.382
NCI-H838	0.461	0.544	0.284	0.329	0.186	0.247	0.227	0.232	0.19	0.19	0.432	0.269	0.199	0.138	0.148	0.74	0.67	0.69	0.538	0.267
NCI-H1355	0.492	0.552	0.276	0.284	0.144	1	1.04	1.03	0.648	0.298	0.669	0.71	0.676	0.341	0.228	0.635	0.687	0.392	0.461	0.272
NCI-H1395	0.618	0.665	0.591	0.551	0.446	0.64	0.702	0.566	0.4	0.371	0.434	0.448	0.406	0.35	0.377	0.659	0.905	0.509	0.54	0.502
NCI-H1437	0.588	0.504	0.21	0.209	0.122	0.347	0.303	0.312	0.288	0.316	0.571	0.593	0.499	0.397	0.378	0.871	0.877	0.804	0.435	0.396
NCI-H1650	0.506	0.572	0.378	0.196	0.139	0.358	0.214	0.189	0.15	0.128	0.285	0.183	0.167	0.156	0.158	0.428	0.518	0.518	0.229	0.219
NCI-H1651	0.49	0.681	0.436	0.178	0.0908	0.629	0.501	0.433	0.366	0.285	0.177	0.153	0.172	0.116	0.122	0.602	0.65	0.399	0.387	0.189
NCI-H1666	0.469	0.233	0.325	0.21	0.205	0.72	0.659	0.804	0.578	0.673	0.65	0.692	0.644	0.54	0.599	0.94	0.933	0.918	0.632	0.549
NCI-H1734	0.468	0.47	0.266	0.341	0.272	0.392	0.406	0.383	0.342	0.273	0.505	0.451	0.377	0.222	0.148	0.701	0.929	0.514	0.458	0.219
NCI-H1755	0.434	0.473	0.316	0.426	0.269	0.529	0.442	0.426	0.381	0.415	0.782	0.79	0.833	0.639	0.599	0.748	0.896	0.694	0.743	0.474
NCI-H1793	0.321	0.433		0.313	0.243	0.739	0.729	0.692	0.134	0.191	0.845	0.675	0.589	0.191	0.195		0.934	0.353	0.427	0.151
NCI-H1915	0.934	1.14	0.634	0.782	0.481	0.428	0.394	0.31	0.211	0.146	0.2	0.226	0.166	0.137	0.11	0.511	0.616	0.426	0.477	0.418
NCI-H1944	0.362	0.39	0.27	0.294	0.222	0.36	0.398	0.313	0.216	0.157	0.259	0.252	0.264	0.18	0.151	0.532	0.532	0.334	0.282	0.147
NCI-H1975	0.304	0.328	0.225	0.276	0.168	0.267	0.252	0.219	0.175	0.166	0.565	0.387	0.394	0.169	0.181	0.726	0.728	0.739	0.476	0.328
NCI-H1993	0.804	0.802	0.806	0.915	0.66	0.649	0.584	0.496	0.469	0.514	0.763	0.728	0.645	0.353	0.43		0.683	0.507	0.718	0.284
